Our source for the EC50 values is patent US20030134859A1 (SANKYO COMPANY, LIMITED, priority 2000, published 2003).

This test addresses T1, human PPAR γ 2 (Homo sapiens, UniProt P37231).
T1 construct: expressed in transfected cells; host or cells: human osteosarcoma MG63, transiently co-transfected with pSG5-hPPARg and the reporter pGV-P2-PPRE
T1 sequence (P37231 1-505): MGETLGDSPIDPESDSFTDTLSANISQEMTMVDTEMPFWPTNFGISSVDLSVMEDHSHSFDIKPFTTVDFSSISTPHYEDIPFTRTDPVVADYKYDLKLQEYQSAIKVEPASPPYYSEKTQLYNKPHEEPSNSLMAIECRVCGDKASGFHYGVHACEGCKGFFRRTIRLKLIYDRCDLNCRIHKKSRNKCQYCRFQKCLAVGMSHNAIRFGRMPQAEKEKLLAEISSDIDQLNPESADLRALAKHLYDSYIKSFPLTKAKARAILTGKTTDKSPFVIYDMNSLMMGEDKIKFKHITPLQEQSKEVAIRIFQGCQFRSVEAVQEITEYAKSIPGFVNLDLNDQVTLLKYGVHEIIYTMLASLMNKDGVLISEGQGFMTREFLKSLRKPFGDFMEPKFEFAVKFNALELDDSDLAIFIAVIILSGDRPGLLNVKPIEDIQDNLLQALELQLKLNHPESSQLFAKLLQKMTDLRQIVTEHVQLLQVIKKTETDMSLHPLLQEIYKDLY
As to the kind of experiment: PPAR γ transcriptional activity, luciferase reporter, test compound alone. The format is cell-based. The following applies: concentration indicating Emax/2, MG63 cells transfected with pSG5-hPPARg and pGV-P2-PPRE, 24 hr. Summed up: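 Human osteosarcoma MG63 cells transiently co-transfected with human PPARγ2 expression plasmid and PPRE-luciferase reporter (rat acyl-CoA oxidase promoter element), then exposed 24 h to test compound alone. Luciferase luminescence gave dose-response curves; EC50 is the concentration giving half of the compound's maximal activity (Emax).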
Turning to `O=C(Nc1ccc(-c2ccccn2)cc1)c1cc([N+](=O)[O-])ccc1Cl` [Example 8, N-[4-(2-Pyridyl)phenyl]-(2-chloro-5-nitrophenyl)carboxamide], a half-maximal effect (EC50) was put at 260 nM.
As for `CCCCCc1ccc(NC(=O)c2cc([N+](=O)[O-])ccc2Cl)cc1` [Example 16, N-(4-Pentylphenyl)-(2-chloro-5-nitrophenyl)carboxamide], the figure is 34 nM; as for `N=C(N)NS(=O)(=O)c1ccc(NC(=O)c2cc([N+](=O)[O-])ccc2Cl)cc1` [Example 106, N-[4-(Amidinoaminosulfonyl)phenyl]-(2-chloro-5-nitrophenyl)carboxamide], 49 nM.
The molecule `CC(=O)Nc1ccc(NC(=O)c2cc([N+](=O)[O-])ccc2Cl)cc1` [Example 117, N-(4-Acetylaminophenyl)-(2-chloro-5-nitrophenyl)carboxamide] showed an EC50 of 8.7 nM.
As for `O=C(Nc1c(Cl)ncnc1Cl)c1cc([N+](=O)[O-])ccc1Cl` [Example 81, N-(4,6-Dichloropyrimidin-5-yl)-(2-chloro-5-nitrophenyl)carboxamide], the figure is 760 nM; as for `O=C(Nc1cccc(NS(=O)(=O)c2ccccc2)c1)c1cc([N+](=O)[O-])ccc1Cl` [Example 30, N-(3-Benzensulfonylaminophenyl)-(2-chloro-5-nitrophenyl)carboxamide], 1.9 nM; as for `O=C(Nc1ccc(S(=O)(=O)Nc2cccnc2)cc1)c1cc([N+](=O)[O-])ccc1Cl` [Example 178], 16 nM.
In turn, `COc1cnc(NS(=O)(=O)c2ccc(NC(=O)c3cc([N+](=O)[O-])ccc3Cl)cc2)nc1` [Example 105, N-[4-[(5-Methoxypyrimidin-2-yl)aminosulfonyl]phenyl]-(2-chloro-5-nitrophenyl)carboxamide] showed an EC50 of 87 nM.
`O=C(Nc1ccccc1-c1ccccc1)c1cc([N+](=O)[O-])ccc1Cl` [Example 7, N-(2-Phenylphenyl)-(2-chloro-5-nitrophenyl)carboxamide] yielded an EC50 of 270 nM.
As for `Cc1cc(NS(=O)(=O)c2ccc(NC(=O)c3cc([N+](=O)[O-])ccc3Cl)cc2)no1` [Example 99], the figure is 34 nM.
`CC(C)(C)c1cc(C(=O)Nc2ccc(NC(=O)c3cc([N+](=O)[O-])ccc3Cl)cc2)cc(C(C)(C)C)c1O` [Example 157, N-[4-[(3,5-di-tert-Butyl-4-hydroxybenzoyl)amino]phenyl]-(2-chloro-5-nitrophenyl)carboxamide] came in with an EC50 of 760 nM.
As for `Cc1nc(NC(=O)c2cc([N+](=O)[O-])ccc2Cl)sc1C` [Example 47], the figure is 420 nM; as for `CCOC(=O)c1ccc(NC(=O)c2cc([N+](=O)[O-])ccc2Cl)cc1` [Example 26, N-(4-Ethoxycarbonylphenyl)-(2-chloro-5-nitrophenyl)carboxamide], 2.1 nM; as for `O=C(Nc1nncs1)c1cc([N+](=O)[O-])ccc1Cl` [Example 85, N-(1,3,4-Thiadiazol-2-yl)-(2-chloro-5-nitrophenyl)carboxamide], 28 nM.
On to `O=C(Nc1nc(-c2ccccc2)cs1)c1cc([N+](=O)[O-])ccc1Cl` [Example 35, N-(4-Phenylthiazol-2-yl)-(2-chloro-5-nitrophenyl)carboxamide], for which the midpoint of the response, the EC50, lay at 25 nM.
In the case of `O=C(Nc1nc(-c2ccccn2)cs1)c1cc([N+](=O)[O-])ccc1Cl` [Example 38, N-[4-(2-Pyridyl)thiazol-2-yl)-(2-chloro-5-nitrophenyl)carboxamide] it was 250 nM; in that of `O=C(Nc1ccc(S(=O)(=O)Nc2ccc(N3CCOCC3)cc2)cc1)c1cc([N+](=O)[O-])ccc1Cl` [Example 179, N-[4-[4-(Morpholin-4-yl)phenyl]aminosulfonyl]phenyl-(2-chloro-5-nitrophenyl)carboxamide], 780 nM.
In the case of `O=C(Nc1ccc(NC(=S)Nc2ccncc2)cc1)c1cc([N+](=O)[O-])ccc1Cl` [Example 259, N-[4-[(Pyridin-4-yl)aminothiocarbonylamino]phenyl]-(2-chloro-5-nitrophenyl)carboxamide] it was 0.7 nM; in that of `O=C(Nc1nc(-c2cccc3ccccc23)cs1)c1cc([N+](=O)[O-])ccc1Cl` [Example 41, N-[4-(1-Naphthyl)thiazol-2-yl]-(2-chloro-5-nitrophenyl)carboxamide], 11 nM; in that of `O=C(Nc1cccc(O)c1)c1cc([N+](=O)[O-])ccc1Cl` [Example 191, N-(3-Hydroxyphenyl)-(2-chloro-5-nitrophenyl)carboxamide], 4.2 nM.
As for `CC(O)c1cccc(NC(=O)c2cc([N+](=O)[O-])ccc2Cl)c1` (stereo not shown) [Example 239, N-[3-(1-Hydroxyethyl)phenyl]-(2-chloro-5-nitrophenyl)carboxamide], the figure is 44 nM; as for `CN(C)c1cccc(NC(=O)c2cc([N+](=O)[O-])ccc2Cl)c1` [Example 176, N-(3-Dimethylamino)phenyl-(2-chloro-5-nitrophenyl)carboxamide], 11 nM.
`Cc1ccc(S(=O)(=O)Nc2ccc(NC(=O)c3cc([N+](=O)[O-])ccc3Cl)cc2)cc1` [Example 116, N-[4-(4-Toluenesulfonylamino)phenyl]-(2-chloro-5-nitrophenyl)carboxamide]: a half-maximal response (EC50) required 11 nM. In other words, the double-digit nanomolar range.
As for `O=C(Nc1nnc(-c2ccccc2)s1)c1cc([N+](=O)[O-])ccc1Cl` [Example 110, N-(5-Phenyl-[1,3,4]thiadiazol-2-yl)-(2-chloro-5—nitrophenyl)carboxamide], the figure is 15 nM; as for `CCCNc1ccc(NC(=O)c2cc([N+](=O)[O-])ccc2Cl)cc1` [Example 181, N-[4-(N-Propylamino)phenyl]-(2-chloro-5-nitrophenyl)carboxamide], 5.6 nM.
In the case of `Cc1cccc(NC(=O)c2cc([N+](=O)[O-])ccc2Cl)n1` [Example 51, N-(6-Methylpyridin-2-yl)-(2-chloro-5-nitrophenyl)carboxamide], a half-maximal effect (EC50) was put at 6.6 nM.
For `Cc1ccc(-c2nc(NC(=O)c3cc([N+](=O)[O-])ccc3Cl)sc2C)cc1Cl` [Example 46, N-[4-(3-Chloro-4-methylphenyl)-5-methylthiazol-2-yl]-(2-chloro-5-nitrophenyl)carboxamide], the EC50 was 810 nM.
Molecule `O=C(Nc1nc(-c2ccc(F)c(F)c2)cs1)c1cc([N+](=O)[O-])ccc1Cl` [Example 111, N-[4-(3,4-Difluorophenyl)thiazol-2-yl]-(2-chloro-5-nitrophenyl)carboxamide] registered an EC50 of 79 nM.
In the case of `O=C(Nc1cccc2nsnc12)c1cc([N+](=O)[O-])ccc1Cl` [Example 86, N-(2,1,3-Benzothiazol-4-yl)-(2-chloro-5-nitrophenyl)carboxamide] it was 11 nM; in that of `Cc1ccc(NC(=O)c2cc([N+](=O)[O-])ccc2Cl)cc1` [Example 1, N-(4-Methylphenyl)-(2-chloro-5-nitrophenyl)carboxamide], 220 nM; in that of `O=C(Nc1ccc(S(=O)(=O)Nc2ccnn2-c2ccccc2)cc1)c1cc([N+](=O)[O-])ccc1Cl` [Example 108, N-[4-[(2-Phenyl-(2H)-pyrazol-3-yl)aminosulfonyl]phenyl]-(2-chloro-5-nitrophenyl)carboxamide], 57 nM.
`Cc1ccccc1-c1csc(NC(=O)c2cc([N+](=O)[O-])ccc2Cl)n1` [Example 39, N-[4-(2-Methylphenyl)thiazol-2-yl]-(2-chloro-5-nitrophenyl)carboxamide] gave an EC50 of 39 nM.
Consider `O=C(Nc1ccc2c3c(cccc13)CC2)c1cc([N+](=O)[O-])ccc1Cl` [Example 54, N-(Acenaphthen-5-yl)-(2-chloro-5-nitrophenyl)carboxamide], for which it took 4.7 nM to reach a half-maximal effect (EC50).
As for `CCCN(CC)c1ccc(NC(=O)c2cc([N+](=O)[O-])ccc2Cl)cc1` [Example 189, N-[4-(N-Ethyl-N-propylamino)phenyl]-(2-chloro-5-nitrophenyl)carboxamide], the figure is 0.7 nM.
The molecule `COc1ccc(NC(=O)c2cc([N+](=O)[O-])ccc2Cl)cc1-c1ccccc1` [Example 6, N-(4-Methoxy-3-phenyl)phenyl-(2-chloro-5-nitrophenyl)carboxamide] displayed an EC50 of 34 nM.
As to `CCCCCCN(CCCCCC)c1ccc(NC(=O)c2cc([N+](=O)[O-])ccc2Cl)cc1` [Example 138, N-[4-(N,N-di-n-Hexylamino)phenyl]-(2-chloro-5-nitrophenyl)carboxamide], a half-maximal effect (EC50) was put at 130 nM.
On to “N-(Ethoxyphenyl)-(2-chloro-5-nitrophenyl)carboxamide [Example 229]”, for which a half-maximal effect (EC50) was put at 160 nM.
